Experimental data reported in patent US9695155B2, “Herbicidal substituted pyrimidinyloxy benzene compounds” (E. I. DU PONT DE NEMOURS AND COMPANY, priority 2013, dated 2017).

Legend:
barnyardgrass = experiment: Test A preemergence; format: in vivo, Echinochloa crus-galli; conditions: Echinochloa crus-galli, pre-emergence, 240 h, 0 to 100 scale where 0 is no effect and 100 is complete control
Summary of the method: (§1)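 Visual injury scored 0–100 (100 = complete control) against untreated controls about 10 days after treatment in a greenhouse. Test chemicals, formulated with surfactant in non-phytotoxic solvent, were sprayed on soil preemergence or on 2-10 cm, one- to two-leaf plants postemergence.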

pigweed = experiment: Test A preemergence; format: in vivo, Amaranthus retroflexus; conditions: Amaranthus retroflexus, pre-emergence, 0 to 100 scale where 0 is no effect and 100 is complete control
Summary of the method: as §1

rice = experiment: Test B flooded paddy test; format: in vivo, Oryza sativa; conditions: Oryza sativa; Flood, 250 g ai/ha; 0 to 100 scale where 0 is no effect and 100 is complete control; read-out: Plant response rating, Rice
Summary of the method: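 Plants at 2-leaf stage; pots flooded to 3 cm above soil and compound applied directly into paddy water, depth held throughout. After 13 to 15 days in greenhouse, visual rating versus controls on 0 (no effect) to 100 (complete control) scale.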

giant foxtail = experiment: Test C preemergence; format: in vivo, Setaria faberii; conditions: Setaria faberi, pre-emergence
Summary of the method: (§2)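 Seeds were sown in loam–sand blend and sprayed preemergence, while plants at 1- to 4-leaf stage (2–18 cm) in peat-based medium received postemergence sprays; test chemicals were formulated in a non-phytotoxic solvent with surfactant. After 13–15 days in a greenhouse, injury was rated visually against controls, 0 (no effect) to 100 (complete control).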

yellow nutsedge = experiment: Test C preemergence; format: in vivo, Cyperus esculentus; conditions: Cyperus, pre-emergence
Summary of the method: as §2

Italian ryegrass = experiment: Test C postemergence; format: in vivo, Lolium multiflorum; conditions: Lolium multiflorum, post-emergence
Summary of the method: as §2

large (Lg) crabgrass = experiment: Test C postemergence; format: in vivo, Digitaria sanguinalis; conditions: Digitaria sanguinalis, post-emergence
Summary of the method: as §2

lambsquarters = experiment: Test C postemergence; format: in vivo, Chenopodium album; conditions: Chenopodium album, post-emergence
Summary of the method: as §2

morningglory = experiment: Test C postemergence; format: in vivo, Ipomoea coccinea; conditions: Ipomoea, post-emergence
Summary of the method: as §2

ragweed = experiment: Test C postemergence; format: in vivo, Ambrosia elatior; conditions: Ambrosia artemisiifolia, post-emergence
Summary of the method: as §2

oilseed rape = experiment: Test C postemergence; format: in vivo, Brassica napus; conditions: Brassica napus, post-emergence
Summary of the method: as §2

wild oat = experiment: Test C postemergence; format: in vivo, Avena fatua; conditions: Avena fatua, post-emergence
Summary of the method: as §2

FC(F)(F)Sc1cnn(-c2ccccc2Oc2ncc(Cl)cn2)c1 [Compound 132, 5-chloro-2-[2-[4-(trifluoromethylthio)-1H-pyrazol-1-yl]phenoxy]pyrimidine]
pest or weed control at 125 g/ha (barnyardgrass; 125 g ai/ha, read-out: Plant response rating, Barnyardgrass): 50%
pest or weed control at 500 g/ha (barnyardgrass; 500 g ai/ha, read-out: Barnyardgrass plant response rating): 100%
pest or weed control at 125 g/ha (pigweed; 125 g ai/ha, read-out: Plant response rating, Pigweed): 100%
pest or weed control at 500 g/ha (pigweed; 240 h, 500 g ai/ha, read-out: Pigweed plant response rating): 100%
plant injury at 250 g/ha (rice): 0%
pest or weed control at 16 g/ha (giant foxtail; 16 g ai/ha, preemergence, scale 0 to 100 (0 no effect, 100 complete control), read-out: Foxtail, Giant plant response rating): 5%
pest or weed control at 62 g/ha (giant foxtail; 62 g ai/ha, preemergence, scale 0 (no effect) to 100 (complete control), read-out: Foxtail, Giant plant response rating): 70%
pest or weed control at 125 g/ha (giant foxtail; 125 g ai/ha, preemergence, scale 0 (no effect) to 100 (complete control), read-out: Foxtail, Giant plant response rating): 98%
pest or weed control at 31 g/ha (giant foxtail; Preemergence, 31 g ai/ha, scale 0 to 100, 0 no effect, 100 complete control, read-out: Plant response rating, Foxtail, Giant): 55%
pest or weed control at 16 g/ha (yellow nutsedge; 16 g ai/ha, preemergence, scale 0 to 100 (0 no effect, 100 complete control), read-out: Nutsedge, Yellow plant response rating): 100%
pest or weed control at 62 g/ha (yellow nutsedge; 62 g ai/ha, preemergence, scale 0 (no effect) to 100 (complete control), read-out: Nutsedge, Yellow plant response rating): 15%
pest or weed control at 125 g/ha (yellow nutsedge; 125 g ai/ha, preemergence, scale 0 (no effect) to 100 (complete control), read-out: Nutsedge, Yellow plant response rating): 15%
pest or weed control at 31 g/ha (yellow nutsedge; Preemergence, 31 g ai/ha, scale 0 to 100, 0 no effect, 100 complete control, read-out: Plant response rating, Nutsedge, Yellow): 0%
pest or weed control at 16 g/ha (Italian ryegrass; 16 g ai/ha, postemergence, 0 is no effect, 100 is complete control, read-out: Plant response rating (0 to 100), Ryegrass, Italian): 0%
pest or weed control at 125 g/ha (Italian ryegrass; 125 g ai/ha, postemergence, visual rating, scale 0 to 100 (0 no effect, 100 complete control), read-out: Plant response rating, Ryegrass, Italian): 5%
pest or weed control at 62 g/ha (Italian ryegrass; Postemergence, 62 g ai/ha, scale 0 to 100 (0 no effect, 100 complete control), read-out: Plant response rating, Ryegrass, Italian): 5%
pest or weed control at 16 g/ha (large (Lg) crabgrass; 16 g ai/ha, postemergence, 0 is no effect, 100 is complete control, read-out: Plant response rating (0 to 100), Crabgrass, Large): 5%
pest or weed control at 125 g/ha (large (Lg) crabgrass; 125 g ai/ha, postemergence, visual rating, scale 0 to 100 (0 no effect, 100 complete control), read-out: Plant response rating, Crabgrass, Large): 10%
pest or weed control at 62 g/ha (large (Lg) crabgrass; Postemergence, 62 g ai/ha, scale 0 to 100 (0 no effect, 100 complete control), read-out: Plant response rating, Crabgrass, Large): 5%
pest or weed control at 16 g/ha (lambsquarters; 16 g ai/ha, postemergence, 0 is no effect, 100 is complete control, read-out: Plant response rating (0 to 100), Lambsquarters): 10%
pest or weed control at 125 g/ha (lambsquarters; 125 g ai/ha, postemergence, visual rating, scale 0 to 100 (0 no effect, 100 complete control), read-out: Plant response rating, Lambsquarters): 50%
pest or weed control at 62 g/ha (lambsquarters; Postemergence, 62 g ai/ha, scale 0 to 100 (0 no effect, 100 complete control), read-out: Plant response rating, Lambsquarters): 60%
pest or weed control at 16 g/ha (morningglory; 16 g ai/ha, postemergence, 0 is no effect, 100 is complete control, read-out: Plant response rating (0 to 100), Morningglory): 10%
pest or weed control at 125 g/ha (morningglory; 125 g ai/ha, postemergence, visual rating, scale 0 to 100 (0 no effect, 100 complete control), read-out: Plant response rating, Morningglory): 65%
pest or weed control at 62 g/ha (morningglory; Postemergence, 62 g ai/ha, scale 0 to 100 (0 no effect, 100 complete control), read-out: Plant response rating, Morningglory): 75%
pest or weed control at 16 g/ha (ragweed; 16 g ai/ha, postemergence, 0 is no effect, 100 is complete control, read-out: Plant response rating (0 to 100), Ragweed): 0%
pest or weed control at 125 g/ha (ragweed; 125 g ai/ha, postemergence, visual rating, scale 0 to 100 (0 no effect, 100 complete control), read-out: Plant response rating, Ragweed): 35%
pest or weed control at 62 g/ha (ragweed; Postemergence, 62 g ai/ha, scale 0 to 100 (0 no effect, 100 complete control), read-out: Plant response rating, Ragweed): 10%
plant injury at 16 g/ha (oilseed rape; 16 g ai/ha, postemergence, 0 is no effect, 100 is complete control, read-out: Plant response rating (0 to 100), Oilseed Rape): 40%
plant injury at 125 g/ha (oilseed rape; 125 g ai/ha, postemergence, visual rating, scale 0 to 100 (0 no effect, 100 complete control), read-out: Plant response rating, Oilseed Rape): 95%
plant injury at 62 g/ha (oilseed rape; Postemergence, 62 g ai/ha, scale 0 to 100 (0 no effect, 100 complete control), read-out: Plant response rating, Oilseed Rape): 70%
pest or weed control at 16 g/ha (wild oat; 16 g ai/ha, postemergence, 0 is no effect, 100 is complete control, read-out: Plant response rating (0 to 100), Oat, Wild): 0%
pest or weed control at 125 g/ha (wild oat; 125 g ai/ha, postemergence, visual rating, scale 0 to 100 (0 no effect, 100 complete control), read-out: Plant response rating, Oat, Wild): 5%
pest or weed control at 62 g/ha (wild oat; Postemergence, 62 g ai/ha, scale 0 to 100 (0 no effect, 100 complete control), read-out: Plant response rating, Oat, Wild): 5%
